Experimental data reported in patent US9975860B2, “Anti-angiogenic compounds” (UNIVERSITY COLLEGE DUBLIN—NATIONAL UNIVERSITY OF IRELAND, …, priority 2014, dated 2018).
“Also recorded” adds a separate entry of the source.

Tests used:
Ang-1 = assay: Multiplex ELISA of HMEC media: Ang-1; format: cell-based, human; conditions: compound-treated HMECs, 16 hours
Protocol: (§1) Dermal-derived Human Microvascular Endothelial Cells (HMEC) were maintained at 37° C./5% CO2 in MCDB-131 medium (Gibco/cat: 10372) supplemented with 10% FCS, L-Glutamine (Gibco/cat: 25030-032), 1 μl/ml Hydrocortisone (Sigma/cat: H0396), 10 ng/ml EGF (BD Biosciences 354001) and 1% Pen-Strep (Gibco/cat: 151040-148). The wells of a μ-slide angiogenesis plate (IBIDI Cat no: 81506) were coated with a layer of matrigel matrix (BD 356234) which was left to polymerize for 45 minutes at 37° C. HMECs were grown to 80% confluence, washed with DPBS (Invitrogen) and trypsinised using 2 ml TrypLE™ Express (1×) (Invitrogen). Cells were centrifuged following flask detachment at 1200 rpm for 4 minutes. The cell pellet was resuspended in 3 ml full media and a cell count was performed using a haemocytometer. 7.5×10^3 cells were pipetted into each matrigel coated well of the μ-slide angiogenesis plate and treated with either 0.1% DMSO or 1, 3.16 or 10 μM compound 4 or compound 18. The slide was kept at 37° C./5% CO2 during cell tube formation. After 16 hours, 50 μl of media was removed from each of the Ibidi wells and 25 μl of the media was run in each well of a Meso Scale Discovery (MD, USA) custom multiplex ELISA containing the following analytes: Ang-1, Ang-2, VEGF, bFGF, PAI-1, sICAM and sVCAM. The ELISA was run as per manufacturer's instructions.

[1] = tested on: primary hyaloid vessels in zebrafish; assay: Quantification of primary hyaloid vasculature branch number in Tg(fli1:EGFP) zebrafish; format: in vivo
Protocol: All experiments were carried out under ethical approval granted by the UCD animal research ethics committee. Tg(fli1:EGFP) zebrafish were maintained according to standard procedures on a 14 hr light/10 hr dark cycle at 28° C. Embryos were obtained by natural spawning and developmental stages established by time and morphological criteria. At 48 hours post fertilisation (hpf), 5 embryos per well were placed in 400 μl of Embryo Medium/0.1% DMSO and incubated with compound (typically, 10 μM) at 28° C. on a 14 h light/10 h dark cycle. At 5 days post fertilisation (dpf), larvae were euthanised, and fixed in 4% PFA at 4° C. overnight before analysis.
Prior to analysis of the intraocular vasculature, the control and treated larvae were observed under an Olympus SZX16 stereo zoom microscope and screened for general malformations. Overall patterning of the vasculature (fin, gut and intersegmental vessels) was examined for abnormalities. Right lenses were dissected from the larvae and transferred to depression slides for observation under epi-fluorescence in the Olympus SZX16. Patterning of the hyaloid vessels on the treated larval lenses was compared to 0.1% DMSO controls and the archetypal pattern previously described (Alvarez et al., 2007; Alvarez et al., 2009). The number of primary vessels radiating from the back of the lens (3-4 main branches at 5 dpf in controls and previously described), was counted and the average number was graphed for each drug.
(§2) All experimental protocols were carried out as per example 1 and 2. Briefly, zebrafish larvae were treated with 10 μM of AT-051/41206012 (chemical name 2-[2-(2-methoxyphenyl)ethenyl]pyrazine) purchased from Specs (The Netherlands). At 6 or 48 hours post fertilisation (hpf), 5 embryos per well were placed in 400 μl of Embryo Medium/0.1% DMSO and incubated with 10 μM AT-051/41206012 at 28° C. on a 14 h light/10 h dark cycle. Larvae were treated from 6-48 hpf (intersegmental vessel study) or from 48 to 120 hpf (primary hyaloid vessel study). At the end of the study, larvae were euthanized and fixed in 4% PFA at 4° C. overnight before analysis.
(§3) The number of intersegmental vessels was counted and the average number was graphed for each drug. Right lenses were dissected from the larvae and transferred to depression slides for observation and the number of primary hyaloid vessels radiating from the back of the lens (3-4 main branches at 5 dpf in controls and previously described), was counted and the average number was graphed for each drug.

PAI-1 = assay: Multiplex ELISA of HMEC media: PAI-1; format: cell-based, human; conditions: compound-treated HMECs, 16 hours
Protocol: as §1

[2] = tested on: human endothelial (HMEC) cells; assay: MTT cell viability assay in HMEC; format: cell-based; conditions: 10 μM, 24 hours
Protocol: A 3-(4,5-dimethylthiozol-2-yl)-2,5-diphenyltetrazolium bromide (MTT) dye reduction assay was carried out to determine the cytotoxicity of each compound on either human microvascular endothelial cells (HMECs) or human retinal pigmented epithelium cells (ARPE-19). Cells were maintained in a 95% air and 5% CO2 atmosphere at 37° C. in Dulbecco modified Eagle medium (DMEM, Sigma Aldrich) with 10% fetal bovine serum, 2 mM Gibco® L-glutamine and 100 units/ml penicillin, 1 mg/ml streptomycin (Invitrogen) supplementation. On day 1, cells were trypsinized (Trypsin-EDTA 1×) and seeded 1.4×10^4 cells per well of a 96 well plate and incubated overnight. On day 2, cells were serum staved in DMEM with L-glutamine and penicillin-streptomycin supplementation for 24 h. On day 3, cells were drug treated for 24 h (HMECs) or 96 h (ARPE-19 cells) with 0.1% DMSO or 10 μM to 90 μM of each compound 4, 8, 15, 18 or 20, with 4 replicate wells of each compound. After 24-96 h, cells were incubated with […] 5 mg/ml MTT labelling Reagent (Roche) for 2 h. Subsequently, when purple formazan crystals formed cells were incubated with 1× solubilisation solution (Roche) for 4 h and absorbance read at 570 nm using a microplate reader.

[3] = tested on: intersegmental vasculature in zebrafish; assay: Quantification of intersegmental vessel number in zebrafish; format: in vivo; conditions: 10 μM; zebrafish embryos treated 6 hpf to 48 hpf
Protocol: At 6 hours post fertilisation, 5 embryos per well were placed in 400 μL of embryo medium/0.1% DMSO and incubated with 10 μM compound at 28° C. on a 14 h light/10 h dark cycle. At 48 hpf larvae were manually dechorionated, euthanised, and fixed in 4% PFA at 4° C. overnight before analysis. The larvae were then washed with PBS and transferred to depression slides for observation under epi-fluorescence in an Olympus SZX16 fluorescent microscope. The number of intersegmental vessels was counted and the average number was graphed for each drug.
as §2, §3

bFGF = assay: Multiplex ELISA of HMEC media: bFGF; format: cell-based, human; conditions: compound-treated HMECs, 16 hours
Protocol: as §1

[4] = 10 μM, zebrafish larvae treated 48 hpf to 5 dpf, vs 0.1% DMSO control
[5] = concentrations below 10 μM (range 1, 2.5, 5, 7.5 and 10 μM tested), zebrafish larvae 48 hpf to 5 dpf

Row | Compound | expression of Ang-1 (Ang-1) | inhibition of developmental angiogenesis of the hyaloid vasculature (number of primary hyaloid vessels) [1, 4] | inhibition of developmental angiogenesis of the hyaloid vasculature (number of primary hyaloid vessels) [1, 5] | expression of PAI-1 (PAI-1; hydrochloride) | cell viability (MTT assay) [2] | inhibition of developmental angiogenesis of intersegmental vessels (number of intersegmental vessels) [3] | expression of bFGF (bFGF) | expression of PAI-1 (PAI-1)
1 | Cl.Oc1ccccc1/C=C/c1cnccn1 [Compound 4, (E)-2-[2-(Pyrazin-2-yl)vinyl]phenol hydrochloride] | not significantly different to control-treated HMECs | inhibit developmental angiogenesis of the zebrafish hyaloid vasculature in a statistically significant manner | inhibit developmental angiogenesis of the zebrafish hyaloid vasculature in a statistically significant manner | significantly reduce; also recorded: reduce expression of Ang-2 and PAI-1 in human endothelial microvascular cells in a statistically significant manner | does not affect cell viability | inhibit developmental angiogenesis of zebrafish intersegmental vessels in a statistically significant manner | not significantly different to control-treated HMECs | –
2 | Oc1ccccc1C#Cc1cnccn1 [Compound 18, 2-[2-(Pyrazin-2-yl)ethynyl]phenol] | not significantly different to control-treated HMECs | inhibit developmental angiogenesis of the zebrafish hyaloid vasculature in a statistically significant manner | inhibit developmental angiogenesis of the zebrafish hyaloid vasculature in a statistically significant manner | – | does not affect cell viability | inhibit developmental angiogenesis of zebrafish intersegmental vessels in a statistically significant manner | not significantly different to control-treated HMECs | significantly reduce; also recorded: reduce expression of Ang-2 and PAI-1 in human endothelial microvascular cells in a statistically significant manner
